Data as given in US20230364032A1, “USE OF 2-HOBA TO TREAT ATHEROSCLEROSIS” (Vanderbilt University, priority 2020, published 2023).
“Also recorded” adds a separate entry of the source.

What was measured:
[1] = Body weight, water intake, diet consumption, mortality; assay type: in vivo; conditions: Ldlr−/− mice, western diet 16 weeks, 1 g/L; compared to vehicle or 4-HOBA
Procedure: The body weight (FIG. 8A), water intake (FIG. 8B), and diet consumption (FIG. 8C) were measured in the Ldlr^−/− mice consuming a Western diet for 16 weeks and treated with 1 g/L 2-HOBA, 4-HOBA, or vehicle. (FIG. 8D) The plasma was pooled from hypercholesterolemic Ldlr^−/− mice (4 mice/group) that were fasted for 6 hours. Fast performance liquid chromatography (FPLC) was performed using a Superose 6 column. Total cholesterol was measured by an enzymatic assay and the average is shown for two pooled plasma samples per group of mice.
Ldlr^−/− and WT on C57BL/6 background mice were obtained from the Jackson Laboratory. Animal protocols were performed according to the regulations of Vanderbilt University's Institutional Animal Care and Usage Committee. Mice were maintained on chow or a Western-type diet containing 21% milk fat and 0.15% cholesterol (Teklad). Eight week old, female Ldlr^−/− mice on a chow diet were pretreated with vehicle alone (Water) or containing either 1 g/L of 4-HOBA or 1 g/L of 2-HOBA. 4-HOBA (as hydrochloride salt) was synthesized as previously described^21. 2-HOBA (as the acetate salt, CAS 1206675-01-5) was manufactured by TSI Co., Ltd. (Missoula, MT) and obtained from Metabolic Technologies, Inc., Ames, IA^24. A commercial production lot was used (Lot 16120312), and the purity of the commercial lot was verified to be >99% via HPLC and NMR spectroscopy^24. […]

MDA-protein adducts = experiment: Proximal aortic lesion MDA adducts by immunofluorescence; assay type: in vivo, mouse; conditions: Ldlr−/− mice
Source text: The extent of atherosclerosis was examined both Oil-Red-O-stained cross-sections of the proximal aorta and by en face analysis^30. Briefly, cryosections of 10-micron thickness were cut from the region of the proximal aorta starting from the end of the aortic sinus and for 300 μm distally, according to the method of Paigen et al.^62. The Oil red-O staining of 15 serial sections from the root to ascending aortic region were used to quantify the Oil red-O-positive staining area per mouse. The mean from the 15 serial sections was applied for the aortic root atherosclerotic lesion size per mouse using the KS300 imaging system (Kontron Elektronik GmbH) as described^63, 64, 65. All other stains were done using sections that were 40 to 60 μm distal of the aortic sinus. For each mouse, 4 sections were stained and quantitation was done on the entire cross section of all 4 sections. For immunofluorescence staining, 5 μm cross-sections of the proximal aorta were fixed in cold acetone (Sigma), blocked in Background Buster (Innovex), incubated with indicated primary antibodies (MDA and CD68) at 4° C. for overnight. After incubation with fluorescent labeled secondary antibodies at 37 C for 1 hour, the nucleus was counterstained with Hoechst. Images were captured with a fluorescence microscope (Olympus IX81) and SlideBook 6 (Intelligent-Image) software and quantitated using ImageJ software (NIH)^66.

MDA = experiment: MDA-HOBA (propenal-HOBA) adducts in urine and tissues after oral gavage (LC-MS/MS); assay type: in vivo, mouse
Procedure: Urine samples were collected for 16 h after oral gavage of male Ldlr^−/− mice on a WD with either 2-HOBA or 4-HOBA. After 16 h, the Ldlr^−/− mice were sacrificed and the HOBA-propenal adducts in urine (14A), liver (14B), kidney (14C) and spleen (14D) were measured using LC-MS/MS as described in methods (14A-D) (Mann-Whitney test, ** indicates p<0.01 and *** indicates p<0.001).
Ldlr^−/− and WT on C57BL/6 background mice were obtained from the Jackson Laboratory. Animal protocols were performed according to the regulations of Vanderbilt University's Institutional Animal Care and Usage Committee. Mice were maintained on chow or a Western-type diet containing 21% milk fat and 0.15% cholesterol (Teklad). Eight week old, female Ldlr^−/− mice on a chow diet were pretreated with vehicle alone (Water) or containing either 1 g/L of 4-HOBA or 1 g/L of 2-HOBA. 4-HOBA (as hydrochloride salt) was synthesized as previously described^21. 2-HOBA (as the acetate salt, CAS 1206675-01-5) was manufactured by TSI Co., Ltd. (Missoula, MT) and obtained from Metabolic Technologies, Inc., Ames, IA^24. A commercial production lot was used (Lot 16120312), and the purity of the commercial lot was verified to be >99% via HPLC and NMR spectroscopy^24. After two weeks, the mice continued to receive these treatments but were switched to a western diet for 16 weeks to induce hypercholesterolemia and atherosclerosis. Similarly, 12 week-old male Ldlr^−/− mice were pretreated with vehicle alone (water) or containing 1 g/L of 2-HOBA for two weeks and were then switched to a western diet for 16 weeks to induce hypercholesterolemia and atherosclerosis, while continuing the treatment with 2-HOBA or water alone^58, 59, 60 Based on the average weight and daily consumption of water per mouse the estimated daily dosage with 1 g/L of 2-HOBA is 200 mg/Kg. […] Eight week old, male Ldlr^−/− mice were fed a western diet for 16 weeks and were continuously treated with water containing either 2-HOBA or 4-HOBA. Urine samples were collected using metabolic cages (2 mice in one cage) during 18 h after oral gavage with either 2-HOBA or 4-HOBA (5 mg each mouse).
The scavenger-MDA adducts were extracted, (1) from homogenate of tissue (equivalent of 30 mg) or (2) from cells (1 ml), three times with 500 μl of ethyl acetate. The extract was dried down, resuspended in 100 μl of ACN-water (1:1, v/v with 0.1% formic acid), vortexed, and filtered through a 0.22 μm spin X column. The reactions were analyzed by LC-EST/MS/MS using the column a Phenomenex Kinetex column at a flow rate of 0.1 ml/min. The gradient consisted of Solvent A, water with 0.2% formic acid and solvent B, acetonitrile with 0.2% formic acid. The gradient was as follows: 0-2 min 99.9% A, 2-9 min 99.9-0.1% A, 9-12 min 99.9% B. The mass spectrometer was operated in the positive ion mode, and the spray voltage was maintained at 5,000 V. Nitrogen was used for the sheath gas and auxiliary gas at pressures of 30 and 5 arbitrary units, respectively. The optimized skimmer offset was set at 10, capillary temperature was 300° C., and the tube lens voltage was specific for each compound. SRM of specific transition ions for the precursor ions at m/z 178→107 (propenal-HOBA adduct).

IL-1β, IL-6, TNF-α, SAA = experiment: Plasma/serum inflammatory cytokines by ELISA; assay type: in vivo, mouse
Procedure: The inflammatory cytokines including IL-1β (5A), IL-6 (5B), TNF-α (5C) and SAA (5D) were measured by ELISA in plasma from mice consuming a western diet for 16 weeks and treated with 2-HOBA, 4-HOBA, or vehicle. N=8 per group.*p<0.05, **p<0.01. ***p<0.001. One-way ANOVA with Bonferroni's post hoc test.
Serum IL-1β, IL-6 and TNF-α levels were measured by ELISA (R&D System). N=7 or 8 mice per group, N.S., One-way ANOVA with Bonferroni's post hoc test.

[2] = 16 h post oral gavage, Ldlr−/− mice

Structure (SMILES): NCc1ccccc1O [2-HOBA, 2-hydroxybenzylamine]
- body weight, water consumption, diet uptake [1]: did not affect; also recorded: does not impact
- reduction of proximal aortic MDA adduct levels (immunofluorescence) (MDA-protein adducts; compared to 4-HOBA): 66.8%
- reduction of proximal aortic MDA adduct levels (immunofluorescence) (MDA-protein adducts; compared to vehicle alone): 68.5%
- propenal-HOBA adducts in kidney, 2-HOBA versus 4-HOBA (MDA; [2]): 5 fold
- propenal-HOBA adducts in liver, 2-HOBA versus 4-HOBA (MDA; [2]): 3 fold
- propenal-HOBA adducts in spleen, 2-HOBA versus 4-HOBA (MDA; [2]): 11 fold
- formation of MDA-HOBA adducts in vivo (MDA; Ldlr−/− mice on WD, oral gavage): abundantly formed; also recorded: more readily formed
- MDA-2-HOBA versus MDA-4-HOBA (propenal-HOBA) adducts in urine (MDA; urine collected during 16 h after oral gavage (5 mg), Ldlr−/− mice on western diet 16 weeks): 19 fold
- cytokine levels (IL-1β, IL-6, TNF-α) (IL-1β, IL-6, TNF-α, SAA; Ldlr−/− mice on chow diet, 1 g/L): no impact
- serum levels of IL-1β, IL-6, TNF-α, and serum amyloid A (IL-1β, IL-6, TNF-α, SAA; Ldlr−/− mice, western diet 16 weeks, versus 4-HOBA or vehicle): decreased; also recorded: reduces
